Test results published in patent US20250002435A1, “ARYLATED FENCHONE DERIVATIVES, COMPOSITIONS COMPRISING THEM, PROCESSES FOR THEIR PREPARATION AND USES THEREOF” (priority 2021, published 2025).

Legend:
mCB1R = mCB1R (Mus musculus (Mouse), UniProt P47746); assay: [3H]CP-55,940 competition displacement binding, crude membranes from mouse brain; conditions: for Ki: displacement of [3H]CP-55,940, NB = No binding detected at concentrations up to 10 μM, read-out: Ki (nM) mCB1R
Experimental: (§1) Affinity for Cannabinoid Receptors. The compounds were further characterized using a radioligand binding assay to determine their affinities for CB1R and CB2R based on each test compound's ability to displace the radiolabeled CB1R/CB2R agonist CP-55,940 from membranes prepared from a mouse brain (a source of CB1R) and membranes of cells expressing the human CB2R. […] Therefore, the compounds were assayed using membranes from CHO-K1 cells expressing the human CB2R (hCB2R).
(§2) Membranes from cells expressing human CB2R were purchased from Charles River, (Cat #A308; Ohio, US). Solutions of test compounds ranging from 0.1 nM to 10 mM were prepared in DMSO. The desired amount of membrane preparation was diluted with ice-cold assay buffer (50 mM Tris-HCl, 2.5 mM EDTA, 5 mM MgCl2, 0.1% BSA, pH 7.4) and was vortexed. […] The assays were incubated for 90 minutes at 30° C. and then immediately filtered on WHATMAN GF/B FilterPaper (Fired) using a Brandel M-24R Harvester followed by six washes with ice cold wash buffer (50 mM Tris-HCl, 2.5 mM EDTA, 5 mM MgCl2, 0.1% BSA, pH 7.4). Radioactivity was detected by adding the FilterPaper directly to the ULTIMA GOLD scintillation cocktail (PerkinElmer), incubation at 20° C. for 60 min and then counted using a Tri-Carb 4910TR liquid scintillation counter.

hCB2R = hCB2R (Homo sapiens (Human), UniProt P34972); assay: [3H]CP-55,940 competition displacement binding, membranes of CHO-K1 cells expressing human CB2R; conditions: for Ki: displacement of [3H]CP-55,940; for mCB1R/hCB2R: selectivity index from Ki values
Experimental: as §1, §2

CNR1 = CNR1 (Homo sapiens (Human), UniProt P21554); assay: cAMP Hunter antagonist assay, CB1; assay type: cell-based; conditions: cAMP antagonist mode
Experimental: Cannabinoid receptors belong to G-protein-coupled receptors which may transduce intracellular agonist-antagonist responses regulating in part levels of cAMP within the cells. Fenchone derivates were assayed using Eurofins proprietary assays (i.e. CB1-Antagonist Catalog #86-0007P-2277AN; CB2-Antagonist Catalog ref. 86-0007P-2818AN; CB1-Agonist; Catalog #86-0007P-2277AG; CB2-Agonist-Catalog #86-0007P-2818AG).
Briefly, for antagonist activity, cAMP Hunter™ Gi cell lines overexpress naturally Gi coupled, wild type GPCRs and are designed to detect inhibition of intracellular cAMP production in response to agonist stimulation of the receptor. These cell lines are designed to be used in conjunction with the HitHunter® cAMP Assay Detection Kit.
Similarly, for agonist activity, cAMP Hunter™ Gs cell lines overexpress naturally Gs coupled, wild type GPCRs and are designed to detect increases in intracellular cAMP levels in response to agonist stimulation of the receptor. These cell lines are designed to be used in conjunction with the HitHunter® cAMP Assay Detection Kit. […]

[1] = tested on: zymosan-induced paw swelling; assay: zymosan mouse paw inflammatory pain model, paw swelling, with or without CB2 antagonists; assay type: in vivo; conditions: for paw swelling vs control: 6 h; for paw swelling effects: SR144528 experiment, 24 h after induction
Experimental: (§3) To induce inflammation, 40 μL of 1.5% (w/v) zymosan A (Sigma) suspended in 0.9% saline was injected into the sub-planter surface of the right hind paw of the mice. Immediately after zymosan injection, antagonists were injected intraperitoneally (IP) and after 30 minutes, the fenchone derivatives dissolved in 0.1 mL vehicle containing ethanol:Cremophore:saline at a ratio of 1:1:18 were injected. Control mice were injected with the vehicle only. After 2, 6, and 24 hrs, paw swelling, and pain perception were measured.
(§4) Specifically, measurement of Oedema Formation was assessed by monitoring paw swelling via calibrated calipers (0.01 mm), 6 and 24 hrs following injections of zymosan alone and/or the test compounds. Pain hyperalgesia was evaluated by the paw withdrawal von Frey test at 6, and 24 h following injections of zymosan and/or the test compounds. […] In this study, only 1.4-60 g corresponding to 4.17 to 5.88 log of force was used, to test the mouse sensitivity to a mechanical stimulus on the swollen paw. The measurements were performed in a quiet room. Before paw pain measurements, the animals were held for 10 sec. The trained investigator applied the filament to the central area of the hind paw with gradual increasing size. The test consisted of poking the middle of the hind paw to provoke a flexion reflex followed by a clear flinch response after paw withdrawal. Each one of the von Frey filaments was applied for approximately 3-4 s to induce the end-point reflex. The first testing was done by using the force filament of 1.4 g. If there was no withdrawal response, the next higher stimulus was tried. The mechanical threshold force (in grams (g)) was defined as the lowest force imposed by two von Frey monofilaments of various sizes, required to produce a paw retraction. The untreated left hind paw served as a control.

[2] = tested on: zymosan-induced hyperalgesia; assay: zymosan mouse paw inflammatory pain model, von Frey test, with or without CB2 antagonists; assay type: in vivo; conditions: for von Frey pain effect: SR144528 experiment, 25 mg/kg IP
Experimental: as §3, §4

[3] = 25 mg/kg IP together with CB2 antagonist SR144528 1 mg/kg

mCB1R, sequence (P47746 whole entry): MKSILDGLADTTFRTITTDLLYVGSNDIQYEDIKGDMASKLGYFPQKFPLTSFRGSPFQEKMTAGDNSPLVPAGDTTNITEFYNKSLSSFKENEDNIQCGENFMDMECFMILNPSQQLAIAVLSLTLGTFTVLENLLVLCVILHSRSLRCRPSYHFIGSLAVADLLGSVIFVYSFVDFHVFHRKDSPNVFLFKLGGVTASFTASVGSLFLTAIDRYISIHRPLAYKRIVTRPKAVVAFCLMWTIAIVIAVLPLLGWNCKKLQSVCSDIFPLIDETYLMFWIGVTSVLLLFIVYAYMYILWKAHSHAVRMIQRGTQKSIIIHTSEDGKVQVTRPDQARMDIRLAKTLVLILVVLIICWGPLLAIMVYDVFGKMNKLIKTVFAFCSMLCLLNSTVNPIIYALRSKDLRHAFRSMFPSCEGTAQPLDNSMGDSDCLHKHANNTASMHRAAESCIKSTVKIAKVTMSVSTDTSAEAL
hCB2R, sequence (P34972 whole entry): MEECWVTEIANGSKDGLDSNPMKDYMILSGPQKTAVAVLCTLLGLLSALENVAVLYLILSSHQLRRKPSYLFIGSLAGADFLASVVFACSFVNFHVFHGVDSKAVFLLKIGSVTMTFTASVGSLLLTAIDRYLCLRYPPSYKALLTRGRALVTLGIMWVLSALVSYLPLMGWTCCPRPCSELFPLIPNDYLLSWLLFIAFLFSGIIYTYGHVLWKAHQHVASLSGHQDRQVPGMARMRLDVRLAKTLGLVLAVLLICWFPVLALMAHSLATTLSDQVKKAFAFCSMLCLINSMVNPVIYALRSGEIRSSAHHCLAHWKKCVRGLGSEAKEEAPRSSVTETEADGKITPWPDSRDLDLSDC

Row | Structure (SMILES) | Ki (mCB1R) | inhibition of [3H]CP-55,940 binding to mCB1R (mCB1R; in words) | Ki (hCB2R) | mCB1R/hCB2R (hCB2R) | antagonistic effect CNR1 (CNR1) | paw swelling vs control [1, 3] | paw swelling vs control ([1]; 25 mg/kg IP, alone) | paw swelling effects [1] | von Frey pain effect [2] | selectivity for the hCB2R over the mCB1R (hCB2R; from Ki values) | paw swelling ([1]; 25 mg/kg IP 1D and 10 mg/kg AM630, 6 h) | paw swelling ([1]; 25 mg/kg IP alone, 24 h, AM630 experiment) | von Frey pain phenotype ([2]; 25 mg/kg IP alone, AM630 experiment)
1 | CCCCCc1cc(OC)c(C2(O)C3(C)CCC(C3)C2(C)C)c(OC)c1 (single isomer, unassigned) [Compound 1b, 2-(2,6′-dimethoxy-4′-pentylphenyl)-1,3,3-trimethylbicyclo[2.2.1]heptan-2-ol] | 2290 nM | no detectable inhibition | 14.4 nM | 158.3 | no detectable antagonistic effect | paw swelling was unaffected | reduced swelling response | not observed | insignificant |  |  |  | 
2 | CCCCCCC(C)(C)c1cc(OC)c([C@]2(O)C3(C)CCC(C3)C2(C)C)c(OC)c1 (stereo partly drawn) [Compound 1d, 2-(2,6′-dimethoxy-4′-(2″-methyloctan-2″-yl)phenyl)-1,3,3-trimethyl-bicyclo[2.2.1]heptan-2-ol] | 427 nM |  | 3.51 nM | 121.8 | no detectable antagonistic effect | swelling was reduced compared to the control | reduced swelling response | not observed | insignificant | 121 fold | reduced swelling | reduced swelling with 1D alone was sustained | significant affect
